In ChEMBL document CHEMBL1150824, “New xenicane diterpenoids from the gorgonian Acalycigorgia inermis” (2001):
Values after ≈ are worked out from the molar mass of the structure shown. Active and inactive are the calls of the source. No cut-off for these calls is given here.

Experiments:
[1] = Inhibition of FPTase at 10 ug/mL
[2] = test system: HUVEC; test: Antiangiogenic activity in HUVEC assessed as inhibition of bFGF-induced tube formation at 10 ug/mL; assay type: functional, cell-based; details: Homo sapiens
[3] = Inhibition of FPTase up to 20 ug/mL
[4] = test system: HUVEC; test: Antiangiogenic activity in HUVEC assessed as inhibition of bFGF-induced tube formation up to 20 ug/mL; assay type: functional, cell-based; details: Homo sapiens
[5] = test system: K562; test: Cytotoxicity against human K562 cells; assay type: functional; details: read-out: LC50 (the source's name)

| inhibition [1] [%] | Compound | Activity [1] | Activity [2] | Activity [3] | Activity [4] | CC50 [5] [µg/mL] |
| --- | --- | --- | --- | --- | --- | --- |
| – | C=C1CC[C@@H]2O[C@@]2(C)CC[C@@H]2[C@H](CCC=C(C)C)C(=O)OC[C@@H]12 | inactive | inactive | inactive | inactive | – |
| 82 | C=C=CCC(OC(C)=O)C1=CO[C@H](OC(C)=O)[C@H]2C(=C)CC[C@@H]3O[C@@]3(C)CC[C@H]12 (stereo partly specified) | – | Active | – | – | – |
| – | C=C1CC/C=C(\C)CC[C@@H]2/C(=C\C=C\C(C)(C)O)C(=O)OC[C@@H]12 [9-DEOXYXENIOLIDE A] | inactive | inactive | inactive | inactive | 0.04 (≈ 0.126 µM) |
| – | C=C1CC[C@@H]2O[C@@]2(C)CC[C@@H]2[C@H](CC/C=C(\C)C(=O)OC)C(=O)OC[C@@H]12 [ACALYCIXENIOLIDE H] | inactive | inactive | inactive | inactive | 3.9 (≈ 10.8 µM) |
| – | C=C1CC/C=C(\C)CC[C@@H]2[C@H](CC/C=C(\C)CO)C(=O)OC[C@@H]12 [ACALYCIXENIOLIDE I] | inactive | inactive | inactive | inactive | 1.2 (≈ 3.77 µM) |
| – | C=C1CC/C=C(\C)CC[C@@H]2[C@H](C/C=C/C(C)(C)O)C(=O)OC[C@@H]12 [ACALYCIXENIOLIDE J] | inactive | inactive | inactive | inactive | 2 (≈ 6.28 µM) |
| – | C=C1CC/C=C(\C)CC[C@@H]2[C@H](CC/C=C\CO)C(=O)OC[C@@H]12 [ACALYCIXENIOLIDE K] | inactive | inactive | inactive | inactive | 1.8 (≈ 5.91 µM) |
| – | C=C1CC/C=C(\C)CC[C@@H]2[C@H](CC/C=C/CO)C(=O)OC[C@@H]12 [ACALYCIXENIOLIDE L] | inactive | inactive | inactive | inactive | 1.5 (≈ 4.93 µM) |
